How the values were obtained:
RPMI-8226 [1] = assay: cells; assay type: cell-based; conditions: Homo sapiens, RPMI-8226, read-out: Antiproliferative effect IC50, RPMI-8226
MOLT-4 = assay: NCI-60 screening, MOLT-4; assay type: cell-based; conditions: Homo sapiens, MOLT-4, read-out: GI50, MOLT-4
LOX IMVI = assay: NCI-60 screening, LOX IMVI; assay type: cell-based; conditions: Homo sapiens, read-out: GI50, LOX IMVI
RPMI-8226 [2] = assay: NCI-60 screening, RPMI-8226; assay type: cell-based; conditions: Homo sapiens, RPMI-8226, read-out: GI50, RPMI-8226
NCI-H522 = assay: NCI-60 screening, NCI-H522; assay type: cell-based; conditions: Homo sapiens, NCI-H522, read-out: GI50, NCI-H522
TYK2 = TYK2 (Homo sapiens, UniProt P29597); assay: Kinase inhibition assay; assay type: biochemical
Sequence of TYK2 (P29597 whole entry): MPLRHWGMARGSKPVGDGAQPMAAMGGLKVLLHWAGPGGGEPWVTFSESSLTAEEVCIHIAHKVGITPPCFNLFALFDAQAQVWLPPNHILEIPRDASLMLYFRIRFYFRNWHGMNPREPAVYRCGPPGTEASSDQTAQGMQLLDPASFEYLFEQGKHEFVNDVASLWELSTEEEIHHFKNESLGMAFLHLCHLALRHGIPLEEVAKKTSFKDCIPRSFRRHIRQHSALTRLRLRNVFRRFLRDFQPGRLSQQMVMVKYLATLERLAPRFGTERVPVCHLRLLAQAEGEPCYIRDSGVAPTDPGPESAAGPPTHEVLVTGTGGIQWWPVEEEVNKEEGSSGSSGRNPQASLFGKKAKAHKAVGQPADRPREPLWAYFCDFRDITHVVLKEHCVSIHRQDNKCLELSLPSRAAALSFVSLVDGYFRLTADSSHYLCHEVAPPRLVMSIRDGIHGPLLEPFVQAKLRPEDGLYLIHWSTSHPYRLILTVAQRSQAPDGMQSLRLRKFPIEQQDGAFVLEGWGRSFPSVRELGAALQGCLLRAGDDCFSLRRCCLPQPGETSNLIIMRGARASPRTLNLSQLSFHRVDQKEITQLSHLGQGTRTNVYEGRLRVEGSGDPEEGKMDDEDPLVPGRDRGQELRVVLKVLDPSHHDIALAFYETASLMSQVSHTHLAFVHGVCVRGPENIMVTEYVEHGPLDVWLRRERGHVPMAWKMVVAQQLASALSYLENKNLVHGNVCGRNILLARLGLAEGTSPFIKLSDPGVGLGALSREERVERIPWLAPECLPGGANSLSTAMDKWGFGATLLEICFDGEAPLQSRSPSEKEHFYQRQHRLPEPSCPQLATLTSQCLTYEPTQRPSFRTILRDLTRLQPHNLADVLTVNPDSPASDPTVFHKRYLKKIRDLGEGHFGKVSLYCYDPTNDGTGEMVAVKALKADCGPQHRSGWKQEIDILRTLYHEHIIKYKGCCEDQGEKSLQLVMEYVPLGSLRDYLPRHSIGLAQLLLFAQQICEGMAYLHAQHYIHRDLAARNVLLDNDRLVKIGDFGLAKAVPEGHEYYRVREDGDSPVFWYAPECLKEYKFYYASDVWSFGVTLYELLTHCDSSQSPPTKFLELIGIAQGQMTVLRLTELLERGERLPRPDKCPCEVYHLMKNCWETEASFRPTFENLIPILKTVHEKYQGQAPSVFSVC

MALME-3M = assay: NCI-60 screening, MALME-3M; assay type: cell-based; conditions: Homo sapiens, read-out: GI50, MALME-3M
MDA-MB-231/ATCC = assay: NCI-60 screening, MDA-MB-231/ATCC; assay type: cell-based; conditions: Homo sapiens, MDA-MB-231, read-out: GI50, MDA-MB-231/ATCC
HDAC3 = HDAC3 (Homo sapiens, UniProt O15379); assay: In vitro HDAC enzyme assay; assay type: biochemical
Sequence of HDAC3 (O15379 whole entry): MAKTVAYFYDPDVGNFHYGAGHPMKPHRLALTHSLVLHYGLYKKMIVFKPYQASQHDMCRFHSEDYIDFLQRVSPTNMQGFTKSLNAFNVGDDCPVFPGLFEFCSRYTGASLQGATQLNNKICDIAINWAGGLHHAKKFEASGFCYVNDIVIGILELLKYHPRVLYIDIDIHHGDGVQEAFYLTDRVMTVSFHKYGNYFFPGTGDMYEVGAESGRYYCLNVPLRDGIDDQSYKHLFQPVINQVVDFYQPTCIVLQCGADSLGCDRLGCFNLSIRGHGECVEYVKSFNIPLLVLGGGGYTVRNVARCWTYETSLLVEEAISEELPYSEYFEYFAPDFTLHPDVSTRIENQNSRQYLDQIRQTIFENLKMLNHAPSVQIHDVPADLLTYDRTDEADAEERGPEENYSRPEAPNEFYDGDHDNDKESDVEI
Sequence of HDAC3 (Q9Y618 395-489 partner limits assumed): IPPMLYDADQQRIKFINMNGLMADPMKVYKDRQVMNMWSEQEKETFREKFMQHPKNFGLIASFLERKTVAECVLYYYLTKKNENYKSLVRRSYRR

A549/ATCC = assay: NCI-60 screening, A549/ATCC; assay type: cell-based; conditions: Homo sapiens, A549, read-out: GI50, A549/ATCC
SK-MEL-2 = assay: NCI-60 screening, SK-MEL-2; assay type: cell-based; conditions: Homo sapiens, SK-MEL-2, read-out: GI50, SK-MEL-2
CCRF-CEM = assay: NCI-60 screening, CCRF-CEM; assay type: cell-based; conditions: Homo sapiens, read-out: GI50, CCRF-CEM
HCT-15 = assay: NCI-60 screening, HCT-15; assay type: cell-based; conditions: Homo sapiens, HCT-15, read-out: GI50, HCT-15
UACC-257 = assay: NCI-60 screening, UACC-257; assay type: cell-based; conditions: Homo sapiens, UACC-257, read-out: GI50, UACC-257
HDAC7 = HDAC7 (Homo sapiens, UniProt Q8WUI4); assay: In vitro HDAC enzyme assay; assay type: biochemical
Sequence of HDAC7 (Q8WUI4 whole entry): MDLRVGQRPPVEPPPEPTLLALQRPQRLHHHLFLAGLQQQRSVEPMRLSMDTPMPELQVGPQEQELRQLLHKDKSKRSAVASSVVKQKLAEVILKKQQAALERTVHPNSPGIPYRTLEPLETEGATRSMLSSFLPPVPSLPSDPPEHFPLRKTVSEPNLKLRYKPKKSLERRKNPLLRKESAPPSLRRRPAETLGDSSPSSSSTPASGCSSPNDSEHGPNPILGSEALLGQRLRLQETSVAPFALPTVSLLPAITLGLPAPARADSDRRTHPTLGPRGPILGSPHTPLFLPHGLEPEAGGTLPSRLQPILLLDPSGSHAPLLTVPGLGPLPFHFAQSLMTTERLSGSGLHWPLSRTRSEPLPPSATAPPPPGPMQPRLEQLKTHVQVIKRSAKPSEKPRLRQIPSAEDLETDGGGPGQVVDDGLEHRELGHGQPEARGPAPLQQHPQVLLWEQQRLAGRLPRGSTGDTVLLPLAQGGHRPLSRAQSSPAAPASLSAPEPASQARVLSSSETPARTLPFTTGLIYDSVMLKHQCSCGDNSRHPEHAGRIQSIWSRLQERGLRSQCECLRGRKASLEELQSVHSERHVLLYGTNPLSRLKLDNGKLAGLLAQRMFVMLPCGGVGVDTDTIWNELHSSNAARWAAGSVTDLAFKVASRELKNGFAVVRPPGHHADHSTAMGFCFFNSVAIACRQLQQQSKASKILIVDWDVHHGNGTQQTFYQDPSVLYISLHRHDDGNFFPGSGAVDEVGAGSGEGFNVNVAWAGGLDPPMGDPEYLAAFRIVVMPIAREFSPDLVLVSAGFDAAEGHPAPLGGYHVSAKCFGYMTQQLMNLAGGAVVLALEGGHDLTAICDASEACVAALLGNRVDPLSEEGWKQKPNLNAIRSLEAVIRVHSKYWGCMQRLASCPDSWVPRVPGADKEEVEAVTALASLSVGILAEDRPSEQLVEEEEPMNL

HCT-116 = assay: NCI-60 screening, HCT-116; assay type: cell-based; conditions: Homo sapiens, HCT-116, read-out: GI50, HCT-116
SK-MEL-28 = assay: NCI-60 screening, SK-MEL-28; assay type: cell-based; conditions: Homo sapiens, SK-MEL-28, read-out: GI50, SK-MEL-28
UACC-62 = assay: NCI-60 screening, UACC-62; assay type: cell-based; conditions: Homo sapiens, UACC-62, read-out: GI50, UACC-62
SK-MEL-5 = assay: NCI-60 screening, SK-MEL-5; assay type: cell-based; conditions: Homo sapiens, SK-MEL-5, read-out: GI50, SK-MEL-5

O=C(NO)c1ccc(CNc2nc3cccc(-c4ccc5c(c4)OCO5)n3n2)cc1 [Compound 19, 4-(((5-(Benzo[d][1, 3]dioxol-5-yl)-[1,2, 4]triazolo[1,5-a]pyridin-2-yl)amino)methyl)-N-hydroxybenzamide]
IC50 (RPMI-8226 [1]): 0.12 ± 0.01 µM
GI50 (MOLT-4): 0.35 µM
GI50 (LOX IMVI): 0.69 µM
GI50 (RPMI-8226 [2]): 0.1 µM
GI50 (NCI-H522): 0.1 µM
IC50 (TYK2): 0.86 ± 0.033 µM
TYK2 IC50 (TYK2; duplicate, SD <15%): very poor inhibitory activities
GI50 (MALME-3M): 0.25 µM
GI50 (MDA-MB-231/ATCC): 0.69 µM
IC50 (HDAC3): 0.083 ± 0.0024 µM
Fold weaker on HDAC3 than HDAC6 (HDAC3; IC50 HDAC3 vs HDAC6): ~19 fold
GI50 (A549/ATCC): 0.89 µM
GI50 (SK-MEL-2): 0.25 µM
GI50 (CCRF-CEM): 0.31 µM
GI50 (HCT-15): 0.69 µM
GI50 (UACC-257): 0.36 µM
IC50 (HDAC7): 0.715 ± 0.0335 µM
GI50 (HCT-116): 0.44 µM
GI50 (SK-MEL-28): 0.48 µM
GI50 (UACC-62): 0.42 µM
GI50 (SK-MEL-5): 0.55 µM

— paper PMC11463018 (Journal of Enzyme Inhibition and Medicinal Chemistry, 2024)
